Laboratory results reported in patent US20250345446A1 (Draupnir Bio ApS, priority 2022, published 2025).
pKd: −log10 of the molar value.

Target: T1, soluble ectodomain of sortilin-6his (Homo sapiens, UniProt Q99523, V650M)
T1 construct: the soluble ectodomain of sortilin-6his is measured by microscale thermophoresis (MST)
Experiment: MST binding to soluble ectodomain of sortilin-6his
Conditions: Table 4; small molecule bifunctional compounds; MST; read-out: KD score, binding to sortilin (Kd)
Protocol: At this point the plate was sealed with adhesive strip and placed on an Eppendorf thermomixer to shake at 600 rpm for 3 min before spinning on a Fisherbrand plate-spinner for 15 seconds and further incubation 1 hrs at 19° C. MST was measured on a Monolith NT. Automated (Nanotemper) in standard-treated capillaries at 5% LED-power and high MST-power. Dose-response was extracted from the raw thermographs at 20 sec hot-time and the dissociation constant was estimated by sigmoidal curve fitting in MO. Affinity analysis program (Nanotemper). All experiments were run in duplicates.

T1 sequence (Q99523 with tags, fused parts or gaps V650M): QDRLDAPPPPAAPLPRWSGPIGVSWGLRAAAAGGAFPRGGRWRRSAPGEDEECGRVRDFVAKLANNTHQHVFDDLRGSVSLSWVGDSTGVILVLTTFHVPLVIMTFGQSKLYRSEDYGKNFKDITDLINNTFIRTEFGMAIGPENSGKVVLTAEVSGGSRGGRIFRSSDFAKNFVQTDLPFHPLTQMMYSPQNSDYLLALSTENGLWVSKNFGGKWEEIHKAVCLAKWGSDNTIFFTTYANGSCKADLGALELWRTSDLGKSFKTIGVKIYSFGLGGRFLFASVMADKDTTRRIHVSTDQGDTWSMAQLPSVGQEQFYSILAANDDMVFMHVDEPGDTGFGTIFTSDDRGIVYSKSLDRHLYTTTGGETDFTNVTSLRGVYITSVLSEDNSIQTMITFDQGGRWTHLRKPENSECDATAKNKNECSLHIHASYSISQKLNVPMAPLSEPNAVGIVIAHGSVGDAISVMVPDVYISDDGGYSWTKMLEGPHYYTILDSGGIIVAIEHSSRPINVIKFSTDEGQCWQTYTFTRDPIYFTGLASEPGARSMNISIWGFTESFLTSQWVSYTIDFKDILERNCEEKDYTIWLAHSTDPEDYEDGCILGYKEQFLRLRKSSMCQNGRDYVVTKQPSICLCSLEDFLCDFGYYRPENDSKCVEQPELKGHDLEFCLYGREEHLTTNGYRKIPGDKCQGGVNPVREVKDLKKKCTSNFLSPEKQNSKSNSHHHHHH

With `C[C@@H]1CN(c2ncc(-c3ccc4c(n3)N(Cc3cccnc3C#N)C(C)(C)C4=O)cn2)CCN1C(=O)CNC(=O)COCCOCCCCCCNC(=O)c1cccc(Oc2ccc(C(=O)N[C@@H](CCC(C)(C)C)C(=O)O)cn2)c1` as the compound, how does the pKd read?
The pKd was 8.00 to 9.00.

How did the pKd turn out when `CC(C)(C)CC[C@H](NC(=O)c1ccc(Oc2cccc(C(=O)NCCOCCOCCNc3ccc([N+](=O)[O-])cc3[N+](=O)[O-])c2)nc1)C(=O)O` [BF001, (2S)-2-[[6-[3-[2-[2-[2-(2,4-dinitroanilino)ethoxy]ethoxy]ethylcarbamoyl]phenoxy]pyridine-3-carbonyl]amino]-5,5-dimethyl-hexanoic acid] was run?
The pKd was 8.00 to 9.00.

How did the pKd turn out when `CC(C)(C)CC[C@H](NC(=O)c1ccc(Oc2cccc(C(=O)NCCOCCOCCOCCNc3ccc([N+](=O)[O-])cc3[N+](=O)[O-])c2)nc1)C(=O)O` [BF002, (2S)-2-[[6-[3-[2-[2-[2-[2-(2,4-dinitroanilino)ethoxy]ethoxy]ethoxy]ethyl-carbamoyl]phenoxy]pyridine-3-carbonyl]amino]-5,5-dimethyl-hexanoic acid] was run?
Its pKd is 8.00 to 9.00.

With `CC(C)(C)CC[C@H](NC(=O)c1ccc(Oc2cccc(C(=O)NCCOCCOCCOCCOCCNc3ccc([N+](=O)[O-])cc3[N+](=O)[O-])c2)nc1)C(=O)O` [BF003, (2S)-2-[[6-[3-[2-[2-[2-[2-[2-(2,4-dinitroanilino)ethoxy]ethoxy]ethoxy]ethoxy]ethylcarbamoyl]phenoxy]pyridine-3-carbonyl]amino]-5,5-dimethyl-hexanoic acid] as the compound, how does the pKd read?
The pKd was 8.00 to 9.00.

With `CC(C)(C)CC[C@H](NC(=O)c1ccc(Oc2cccc(OCCOCCOCCOCCNc3ccc([N+](=O)[O-])cc3[N+](=O)[O-])c2)nc1)C(=O)O` [BF007, (2S)-2-[[6-[3-[2-[2-[2-[2-(2,4-dinitroanilino)ethoxy]ethoxy]ethoxy]ethoxy]phenoxy]pyridine-3-carbonyl]amino]-5,5-dimethyl-hexanoic acid] as the compound, how does the pKd read?
The pKd was 8.00 to 9.00.

How did the pKd turn out when `CC(C)(C)CC[C@H](NC(=O)c1ccc(Oc2cccc3c(C(=O)NCCCNC(=O)CCOCCOCCNc4ccc([N+](=O)[O-])cc4[N+](=O)[O-])cccc23)nc1)C(=O)O` [BF009] was run?
The pKd was 8.00 to 9.00.

With `CC(C)(C)CC[C@H](NC(=O)c1ccc(Oc2cccc(OCCOCCOCCOCCOCCOCCOCCOCCNc3ccc([N+](=O)[O-])cc3[N+](=O)[O-])c2)nc1)C(=O)O` [BF012, (2S)-2-[[6-[3-[2-[2-[2-[2-[2-[2-[2-[2-(2,4-dinitroanilino)ethoxy]ethoxy]ethoxy]ethoxy]ethoxy]ethoxy]ethoxy]ethoxy]phenoxy]pyridine-3-carbonyl]amino]-5,5-dimethyl-hexanoic acid] as the compound, how does the pKd read?
Its pKd is 8.00 to 9.00.

How did the pKd turn out when `CC(C)(C)CC[C@H](NC(=O)c1ccc(Oc2cccc(C(=O)NCCOCCOCCOCCNc3ncc(-c4ccc5c(n4)N(Cc4cccnc4C#N)C(C)(C)C5=O)cn3)c2)nc1)C(=O)O` [BF030, (2S)-2-[[6-[3-[2-[2-[2-[2-[[5-[1-[(2-cyano-3-pyridyl)methyl]-2,2-dimethyl-3-oxo-pyrrolo[2,3-b]pyridin-6-yl]pyrimidin-2-yl]amino]ethoxy]ethoxy]ethoxy]ethylcarbamoyl]phenoxy]pyridine-3-carbonyl]amino]-5,5-dimethyl-hexanoic acid] was run?
The pKd was greater than 9.00.

`C[C@@H]1CN(c2ncc(-c3ccc4c(n3)N(Cc3cccnc3C#N)C(C)(C)C4=O)cn2)CCN1C(=O)COCCOCCOCCOCCNC(=O)c1cccc(Oc2ccc(C(=O)N[C@@H](CCC(C)(C)C)C(=O)O)cn2)c1` [BF031, (2S)-2-[[6-[3-[2-[2-[2-[2-[2-[(2R)-4-[5-[1-[(2-cyano-3-pyridyl)methyl]-2,2-dimethyl-3-oxo-pyrrolo[2,3-b]pyridin-6-yl]pyrimidin-2-yl]-2-methyl-piperazin-1-yl]-2-oxo-ethoxy]ethoxy]ethoxy]ethoxy]ethylcarbamoyl]phenoxy]pyridine-3-carbonyl]amino]-5,5-dimethyl-hexanoic acid] was tested. Which pKd did it give?
Its pKd is 6.60 to 8.00.

With `CC(C)(C)CC[C@H](NC(=O)c1ccc(Oc2cccc(C(=O)NCCOCCOCCOCc3ccc(-c4cccc5ccncc45)c(OCCc4ccc(-c5cccc6ccncc56)cc4)c3)c2)nc1)C(=O)O` [BF033, (2S)-2-[[6-[3-[2-[2-[2-[[4-(8-isoquinolyl)-3-[2-[4-(8-isoquinolyl)phenyl]ethoxy]phenyl]methoxy]ethoxy]ethoxy]ethylcarbamoyl]phenoxy]pyridine-3-carbonyl]amino]-5,5-dimethyl-hexanoic acid] as the compound, how does the pKd read?
Its pKd is greater than 9.00.

How did the pKd turn out when `CC(C)(C)CC[C@H](NC(=O)c1ccc(Oc2cccc(C(=O)NCCOCCOCCOCCOCc3ccc(-c4cccc5ccncc45)c(OCCc4ccc(-c5cccc6ccncc56)cc4)c3)c2)nc1)C(=O)O` [BF035, (2S)-2-[[6-[3-[2-[2-[2-[2-[[4-(8-isoquinolyl)-3-[2-[4-(8-isoquinolyl)phenyl]ethoxy]phenyl]methoxy]ethoxy]ethoxy]ethoxy]ethylcarbamoyl]phenoxy]pyridine-3-carbonyl]amino]-5,5-dimethyl-hexanoic acid] was run?
Its pKd is 8.00 to 9.00.

With `C[C@@H]1CN(c2ncc(-c3ccc4c(n3)N(Cc3cccnc3C#N)C(C)(C)C4=O)cn2)CCN1C(=O)COCCCCCCNC(=O)COc1cccc(Oc2ccc(C(=O)N[C@@H](CCC(C)(C)C)C(=O)O)cn2)c1` [BF036] as the compound, how does the pKd read?
The pKd was 8.00 to 9.00.

With `CC(C)(C)CC[C@H](NC(=O)c1ccc(Oc2cccc(C(=O)NCCOCCOCCOCCOCCOCc3ccc(-c4cccc5ccncc45)c(OCCc4ccc(-c5cccc6ccncc56)cc4)c3)c2)nc1)C(=O)O` [BF037, (2S)-2-[[6-[3-[2-[2-[2-[2-[2-[[4-(8-isoquinolyl)-3-[2-[4-(8-isoquinolyl)phenyl]ethoxy]phenyl]methoxy]ethoxy]ethoxy]ethoxy]ethoxy]ethylcarbamoyl]phenoxy]pyridine-3-carbonyl]amino]-5,5-dimethyl-hexanoic acid] as the compound, how does the pKd read?
The pKd was greater than 9.00.

`C[C@@H]1CN(c2ncc(-c3ccc4c(n3)N(Cc3cccnc3C#N)C(C)(C)C4=O)cn2)CCN1C(=O)COCCCCCCCCNc1cccc(Oc2ccc(C(=O)N[C@@H](CCC(C)(C)C)C(=O)O)cn2)c1` [BF038] was tested. Which pKd did it give?
The pKd was less than 6.60.

`C[C@@H]1CN(c2ncc(-c3ccc4c(n3)N(Cc3cccnc3C#N)C(C)(C)C4=O)cn2)CCN1C(=O)COCCCCCCNc1cccc(Oc2ccc(C(=O)N[C@@H](CCC(C)(C)C)C(=O)O)cn2)c1` [BF039] was tested. Which pKd did it give?
The pKd was 8.00 to 9.00.

`C[C@@H]1CN(c2ncc(-c3ccc4c(n3)N(Cc3cccnc3C#N)C(C)(C)C4=O)cn2)CCN1C(=O)COCCCCCCCCNC(=O)c1cccc(Oc2ccc(C(=O)N[C@@H](CCC(C)(C)C)C(=O)O)cn2)c1` [BF041] was tested. Which pKd did it give?
Its pKd is greater than 9.00.

`CC(C)(C)CC[C@H](NC(=O)c1ccc(Oc2cccc(C(=O)NCCOCCOCCOCCOCCOCCOCc3ccc(-c4cccc5ccncc45)c(OCCc4ccc(-c5cccc6ccncc56)cc4)c3)c2)nc1)C(=O)O` [BF044, (2S)-2-[[6-[3-[2-[2-[2-[2-[2-[2-[[4-(8-isoquinolyl)-3-[2-[4-(8-isoquinolyl)phenyl]ethoxy]phenyl]methoxy]ethoxy]ethoxy]ethoxy]ethoxy]ethoxy]ethylcarbamoyl]phenoxy]pyridine-3-carbonyl]amino]-5,5-dimethyl-hexanoic acid] was tested. Which pKd did it give?
The pKd was 6.60 to 8.00.

How did the pKd turn out when `C[C@@H]1CN(c2ncc(-c3ccc4c(n3)N(Cc3cccnc3C#N)C(C)(C)C4=O)cn2)CCN1C(=O)COCCCCNC(=O)c1cccc(Oc2ccc(C(=O)N[C@@H](CCC(C)(C)C)C(=O)O)cn2)c1` [BF045] was run?
Its pKd is 8.00 to 9.00.

With `C[C@@H]1CN(c2ncc(-c3ccc4c(n3)N(Cc3cccnc3C#N)C(C)(C)C4=O)cn2)CCN1C(=O)COCCCCNc1cccc(Oc2ccc(C(=O)N[C@@H](CCC(C)(C)C)C(=O)O)cn2)c1` [BF046] as the compound, how does the pKd read?
The pKd was greater than 9.00.

With `C[C@@H]1CN(c2ncc(-c3ccc4c(n3)N(Cc3cccnc3C#N)C(C)(C)C4=O)cn2)CCN1C(=O)COCCNc1cccc(Oc2ccc(C(=O)N[C@@H](CCC(C)(C)C)C(=O)O)cn2)c1` [BF047, (S)-2-(6-(3-((2-(2-((R)-4-(5-(1-((2-cyanopyridin-3-yl)methyl)-2,2-dimethyl-3-oxo-2,3-dihydro-1H-pyrrolo[2,3-b]pyridin-6-yl)pyrimidin-2-yl)-2-methylpiperazin-1-yl)-2-oxoethoxy)ethyl)amino)phenoxy)nicotinamido)-5,5-dimethylhexanoic acid] as the compound, how does the pKd read?
The pKd was 8.00 to 9.00.

`C[C@@H]1CN(c2ncc(-c3ccc4c(n3)N(Cc3cccnc3C#N)C(C)(C)C4=O)cn2)CCN1C(=O)COCCCCNC(=O)COc1cccc(Oc2ccc(C(=O)N[C@@H](CCC(C)(C)C)C(=O)O)cn2)c1` [BF048] was tested. Which pKd did it give?
Its pKd is 8.00 to 9.00.

`CC(C)(C)CC[C@H](NC(=O)c1ccc(Oc2cccc(C(=O)NCCOCCOCCNc3ncc(-c4ccc5c(n4)N(Cc4cccnc4C#N)C(C)(C)C5=O)cn3)c2)nc1)C(=O)O` [BF049, (2S)-2-[[6-[3-[2-[2-[2-[[5-[1-[(2-cyano-3-pyridyl)methyl]-2,2-dimethyl-3-oxo-pyrrolo[2,3-b]pyridin-6-yl]pyrimidin-2-yl]amino]ethoxy]ethoxy]ethylcarbamoyl]phenoxy]pyridine-3-carbonyl]amino]-5,5-dimethyl-hexanoic acid] was tested. Which pKd did it give?
The pKd was 8.00 to 9.00.

How did the pKd turn out when `C[C@@H]1CN(c2ncc(-c3ccc4c(n3)N(Cc3cccnc3C#N)C(C)(C)C4=O)cn2)CCN1C(=O)COCCOCCNC(=O)c1cccc(Oc2ccc(C(=O)N[C@@H](CCC(C)(C)C)C(=O)O)cn2)c1` [BF051, (2S)-2-[[6-[3-[2-[2-[2-[(2R)-4-[5-[1-[(2-cyano-3-pyridyl)methyl]-2,2-dimethyl-3-oxo-pyrrolo[2,3-b]pyridin-6-yl]pyrimidin-2-yl]-2-methyl-piperazin-1-yl]-2-oxo-ethoxy]ethoxy]ethylcarbamoyl]phenoxy]pyridine-3-carbonyl]amino]-5,5-dimethyl-hexanoic acid] was run?
Its pKd is 8.00 to 9.00.

`CC(C)(C)CC[C@H](NC(=O)c1ccc(Oc2cccc(C(=O)NCCOCCOCCOCCOCCOc3ncc(-c4ccc5c(n4)N(Cc4cccnc4C#N)C(C)(C)C5=O)cn3)c2)nc1)C(=O)O` [BF052] was tested. Which pKd did it give?
Its pKd is 8.00 to 9.00.

`CC(C)(C)CC[C@H](NC(=O)c1ccc(Oc2cccc(C(=O)NCCOCCOc3ncc(-c4ccc5c(n4)N(Cc4cccnc4C#N)C(C)(C)C5=O)cn3)c2)nc1)C(=O)O` [BF053] was tested. Which pKd did it give?
Its pKd is 8.00 to 9.00.

`CC(C)(C)CC[C@H](NC(=O)c1ccc(Oc2cccc(C(=O)NCCOCCOCCOCCOc3ncc(-c4ccc5c(n4)N(Cc4cccnc4C#N)C(C)(C)C5=O)cn3)c2)nc1)C(=O)O` [BF054] was tested. Which pKd did it give?
Its pKd is 8.00 to 9.00.
